Data published in article PMC12186257, “Serendipitous and Systematic Chemoproteomic Discovery of MBLAC2, HINT1, and NME1‑4 Inhibitors from Histone Deacetylase-Targeting Pharmacophores” (ACS Chemical Biology, 2025).

System: casein kinase 2 (CK2) complex proteins (CSNK2A1/3, CSNK2A2, CSNK2B, EIF3J)
Experiment: Kinobead competition assay
Format: binding, human
Description: The binding of KV-24 and KV-30 to the nucleotide-binding pocket raises the question of whether these compounds also target other nucleotide-binding proteins, such as kinases. To evaluate potential off-target effects, we performed Kinobead competition assays. This chemoproteomic approach is conceptually very similar to the one used here in that broad spectrum kinase inhibitors are immobilized on beads. […] PDE1C is a cAMP/cGMP nucleotide-binding protein that features two divalent metal cation cofactors. The hydroxamic acid moiety of KV-24 might chelate these metal cofactors, supporting the hypothesis that KV-24 binds the active site of PDE1C. […]
Given that local GTP production by NME1 and NME2 is essential for fueling dynamin-driven endocytosis, we investigated the effect of KV-50-mediated NME1/2 inhibition on fluorescent transferrin (TF) uptake in cells. HeLa cells were treated with KV-50 or known endocytosis inhibitors (Pitstop-2 and Dynasore), and surface-bound and internalized fluorescent TF were quantified. […]
LC-MS/MS. The different sample types were measured with different LC-MS/MS settings. MBLAC2 2-dose competition assays were measured with the Lumos1 setup, MBLAC2 9-dose competition assays were measured with the Lumos2 setup, and kinobeads assays were measured with the Eclipse setup. […]

`O=C(NO)c1ccc(-c2nc3ccccc3n3cccc23)cc1` [KV-24] was tested, and the “casein kinase 2 family members binding” value was “reduced binding at two-digit μM concentrations”.
